Results published in the NIST ThermoML archive (doi:10.1016/j.jct.2007.05.011).

Experiment: xn = mol fraction of the nth substance listed
Conditions: 101 kPa, Liquid; for mass density: Vibrating tube method

NCCO.O=CO [2-hydroxyethylammonium formate] + O
Conditions | mass density [kg/m3] | speed of sound [m/s]
305.65 K, x2 = 0 | – | 1690.8
305.65 K, x2 = 0.047 | – | 1723.5
305.65 K, x2 = 0.108 | – | 1725.2
305.65 K, x2 = 0.199 | – | 1726.8
305.65 K, x2 = 0.311 | – | 1728.3
305.65 K, x2 = 0.4 | – | 1728
305.65 K, x2 = 0.492 | – | 1727.3
305.65 K, x2 = 0.601 | – | 1723.5
305.65 K, x2 = 0.699 | – | 1717.4
305.65 K, x2 = 0.8 | – | 1697.5
305.65 K, x2 = 0.9 | – | 1649
305.65 K, x2 = 0.95 | – | 1598.9
308.15 K, x2 = 0 | 1169.39 | 1684.8
308.15 K, x2 = 0.047 | 1169.74 | 1718.4
308.15 K, x2 = 0.108 | 1168.41 | 1720.2
308.15 K, x2 = 0.199 | 1165.49 | 1721.9
308.15 K, x2 = 0.311 | 1160.67 | 1723.6
308.15 K, x2 = 0.4 | 1155.85 | 1723.5
308.15 K, x2 = 0.492 | 1149.4 | 1723
308.15 K, x2 = 0.601 | 1138.94 | 1719.6
308.15 K, x2 = 0.699 | 1125.12 | 1714.1
308.15 K, x2 = 0.8 | 1103.38 | 1695.2
308.15 K, x2 = 0.9 | 1066.39 | 1648.9
308.15 K, x2 = 0.95 | 1036.99 | 1600.8
310.65 K, x2 = 0 | 1167.62 | 1678.7
310.65 K, x2 = 0.047 | 1168.1 | 1713.4
310.65 K, x2 = 0.108 | 1166.77 | 1715.2
310.65 K, x2 = 0.199 | 1163.86 | 1717.1
310.65 K, x2 = 0.311 | 1159.05 | 1718.9
310.65 K, x2 = 0.4 | 1154.22 | 1718.9
310.65 K, x2 = 0.492 | 1147.79 | 1718.7
310.65 K, x2 = 0.601 | 1137.34 | 1715.6
310.65 K, x2 = 0.699 | 1123.56 | 1710.7
310.65 K, x2 = 0.8 | 1101.88 | 1692.8
310.65 K, x2 = 0.9 | 1065.06 | 1648.6
310.65 K, x2 = 0.95 | 1035.83 | 1602.4
313.15 K, x2 = 0 | 1165.84 | 1672.7
313.15 K, x2 = 0.047 | 1166.46 | 1708.3
313.15 K, x2 = 0.108 | 1165.14 | 1710.2
313.15 K, x2 = 0.199 | 1162.22 | 1712.1
313.15 K, x2 = 0.311 | 1157.42 | 1714.1
313.15 K, x2 = 0.4 | 1152.6 | 1714.4
313.15 K, x2 = 0.492 | 1146.17 | 1714.3
313.15 K, x2 = 0.601 | 1135.74 | 1711.7
313.15 K, x2 = 0.699 | 1121.98 | 1707.2
313.15 K, x2 = 0.8 | 1100.38 | 1690.4
313.15 K, x2 = 0.9 | 1063.71 | 1648.2
313.15 K, x2 = 0.95 | 1034.64 | 1603.8
315.65 K, x2 = 0 | 1164.06 | 1666.7
315.65 K, x2 = 0.047 | 1164.82 | 1703.3
315.65 K, x2 = 0.108 | 1163.51 | 1705.2
315.65 K, x2 = 0.199 | 1160.59 | 1707.2
315.65 K, x2 = 0.311 | 1155.79 | 1709.4
315.65 K, x2 = 0.4 | 1150.97 | 1709.8
315.65 K, x2 = 0.492 | 1144.56 | 1710
315.65 K, x2 = 0.601 | 1134.13 | 1707.6
315.65 K, x2 = 0.699 | 1120.4 | 1703.7
315.65 K, x2 = 0.8 | 1098.86 | 1687.8
315.65 K, x2 = 0.9 | 1062.35 | 1647.5
315.65 K, x2 = 0.95 | 1033.42 | 1604.9
318.15 K, x2 = 0 | 1162.29 | 1660.8
318.15 K, x2 = 0.047 | 1163.18 | 1698.3
318.15 K, x2 = 0.108 | 1161.88 | 1700.2
318.15 K, x2 = 0.199 | 1158.96 | 1702.4
318.15 K, x2 = 0.311 | 1154.16 | 1704.7
318.15 K, x2 = 0.4 | 1149.34 | 1705.2
318.15 K, x2 = 0.492 | 1142.94 | 1705.6
318.15 K, x2 = 0.601 | 1132.52 | 1703.6
318.15 K, x2 = 0.699 | 1118.82 | 1700.2
318.15 K, x2 = 0.8 | 1097.33 | 1685.1
318.15 K, x2 = 0.9 | 1060.95 | 1646.7
318.15 K, x2 = 0.95 | 1032.17 | 1605.8
320.65 K, x2 = 0 | 1160.51 | 1654.8
320.65 K, x2 = 0.047 | 1161.55 | 1693.3
320.65 K, x2 = 0.108 | 1160.25 | 1695.3
320.65 K, x2 = 0.199 | 1157.34 | 1697.5
320.65 K, x2 = 0.311 | 1152.53 | 1699.9
320.65 K, x2 = 0.4 | 1147.7 | 1700.6
320.65 K, x2 = 0.492 | 1141.31 | 1701.2
320.65 K, x2 = 0.601 | 1130.9 | 1699.5
320.65 K, x2 = 0.699 | 1117.22 | 1696.5
320.65 K, x2 = 0.8 | 1095.78 | 1682.4
320.65 K, x2 = 0.9 | 1059.54 | 1645.7
320.65 K, x2 = 0.95 | 1030.89 | 1606.4
323.15 K, x2 = 0 | 1158.73 | 1648.9
323.15 K, x2 = 0.047 | 1159.94 | 1688.4
323.15 K, x2 = 0.108 | 1158.62 | 1690.5
323.15 K, x2 = 0.199 | 1155.72 | 1692.7
323.15 K, x2 = 0.311 | 1150.91 | 1695.2
323.15 K, x2 = 0.4 | 1146.05 | 1696
323.15 K, x2 = 0.492 | 1139.69 | 1696.8
323.15 K, x2 = 0.601 | 1129.29 | 1695.4
323.15 K, x2 = 0.699 | 1115.62 | 1692.8
323.15 K, x2 = 0.8 | 1094.23 | 1679.5
323.15 K, x2 = 0.9 | 1058.12 | 1644.6
323.15 K, x2 = 0.95 | 1029.58 | 1606.8
